# Data published in patent publication US20240000756A1, “METHODS AND COMPOUNDS FOR TREATMENT OF AUTISM SPECTRUM DISORDER” (Crestone, Inc., priority 2020, published 2024).
# Read-outs that look alike come from different tables or passages of the source.
# Columns and labels:
# C. difficile [1] = conditions: cited from earlier work
# [2] = Single ascending dose Phase 1a study, safety and pharmacokinetics in healthy adults
# [3] = Multiple ascending dose Phase 1b study, safety and pharmacokinetics in healthy adults; format: in vivo, human; conditions: for half-life / Tmax: both sexes, human, plasma, oral
# Procedure: The study was performed at Quintiles Phase I Services in Overland Park, KS. […] The secondary objective was to determine the plasma pharmacokinetic characteristics of CRS3123 after multiple oral doses. An exploratory endpoint was the evaluation of the effect of CRS3123 on fecal microbiome.
# C. difficile [4] = conditions: C. difficile clinical isolates, agar dilution; cited from earlier work
# C. perfringens = C. perfringens clinical isolates, agar dilution; cited from earlier work
# [5] = single dose, all TEAEs, combined
# [6] = single dose, related to CRS3123 treatment, combined
structure (smiles),measurement,setting,value
O=c1cc(NCCCN[C@@H]2CCOc3c(Br)cc(Br)cc32)[nH]c2ccsc12 [CRS3123],activity in hamster model of C. difficile infection,C. difficile [1],active
same,"deaths, SAEs, severe or life-threatening TEAEs",[2]; single dose,"no deaths, SAEs, or severe or life-threatening TEAEs"
same,moderate TEAEs,[2]; single dose,7.4%
same,overall safety and tolerability,[2]; single dose study,safe and well-tolerated
same,subjects reporting treatment-emergent adverse events (TEAEs),"[2]; single dose, CRS3123-treated subjects combined",93.3%
same,TEAE frequency: abnormal urine analysis,[2]; [5],20.0%
same,TEAE frequency: decreased hemoglobin,[2]; [5],23.3%
same,TEAE frequency: headache,[2]; [5],20.0%
same,TEAE frequency: positive urine leukocyte esterase,[2]; [5],16.7%
same,treatment-related TEAE: abnormal urine analysis,[2]; [6],16.7%
same,treatment-related TEAE: decreased blood calcium,[2]; [6],13.3%
same,treatment-related TEAE: decreased hemoglobin,[2]; [6],16.7%
same,treatment-related TEAE: headache,[2]; [6],20.0%
same,dose proportionality of systemic exposure,[2]; single oral dose 100-1200 mg,did not appear to be dose-proportional
same,fraction absorbed,"[2]; single oral dose 100-1200 mg, healthy fasted subjects",low but detectable fraction
same,metabolism,"[2]; single oral dose, mass spectral analysis",metabolized in the body via glucuronidation
same,"dose proportionality of exposure (Cmax, AUC0-12 Day 1; Cmax,ss, AUC0-τ Day 10)",[3]; 200-600 mg BID,less than proportional to the increase in dose
same,half-life,"[3]; following a single dose, across 3 dose groups, read-out: geometric mean t1/2",3.01 to 3.53 h
same,half-life,"[3]; following 10 days of twice daily administration, across 3 dose groups, read-out: geometric mean t1/2,ss",4.71 to 6.32 h
same,Tmax,"[3]; following 10 days of twice daily administration, across 3 dose groups, read-out: median Tmax,ss",1 to 2 h
same,Tmax,"[3]; following a single dose, across 3 dose groups (200, 400, 600 mg), read-out: median Tmax",2 to 3 h
same,QTcF interval,[3]; multiple ascending dose,no prolongation
same,overall safety and tolerability,"[3]; multiple ascending dose, 200-600 mg BID, 10 days",generally safe and well tolerated
same,accumulation,[3]; multiple twice daily dosing for 10 days,minimal accumulation
same,fate of unchanged drug,[3]; single and multiple dose,retained in the GI tract and excreted in feces
same,MIC90,C. difficile [4],1.0 µg/mL
same,MIC90,C. perfringens,0.25 µg/mL
